Calls of active or inactive are those of the source.
What was measured:
Cytochrome P450 1A2 = target: T1, Cytochrome P450 1A2 (Homo sapiens, UniProt P05177);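 further: PubChem cytochrome P450 panel assay, CYP1A2 panel member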
T1 sequence (P05177 whole entry): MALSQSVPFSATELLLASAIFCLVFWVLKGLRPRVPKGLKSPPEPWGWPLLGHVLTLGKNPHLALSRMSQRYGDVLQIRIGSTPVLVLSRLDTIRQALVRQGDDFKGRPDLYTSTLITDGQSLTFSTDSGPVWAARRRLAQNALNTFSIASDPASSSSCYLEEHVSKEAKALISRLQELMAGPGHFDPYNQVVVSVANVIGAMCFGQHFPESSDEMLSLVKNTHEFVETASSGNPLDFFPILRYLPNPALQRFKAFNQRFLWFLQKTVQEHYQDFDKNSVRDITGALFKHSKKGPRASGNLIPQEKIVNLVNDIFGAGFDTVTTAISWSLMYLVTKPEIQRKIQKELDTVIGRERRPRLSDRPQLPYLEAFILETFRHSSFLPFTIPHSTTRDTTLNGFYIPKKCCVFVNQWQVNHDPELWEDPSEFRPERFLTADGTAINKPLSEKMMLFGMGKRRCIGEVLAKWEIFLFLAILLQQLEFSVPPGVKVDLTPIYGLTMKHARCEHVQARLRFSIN

Cytochrome P450 2D6 = Cytochrome P450 2D6 (Homo sapiens, UniProt P10635);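 further: CYP2D6 member of a cytochrome P450 panel assay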
Sequence of Cytochrome P450 2D6 (P10635 whole entry): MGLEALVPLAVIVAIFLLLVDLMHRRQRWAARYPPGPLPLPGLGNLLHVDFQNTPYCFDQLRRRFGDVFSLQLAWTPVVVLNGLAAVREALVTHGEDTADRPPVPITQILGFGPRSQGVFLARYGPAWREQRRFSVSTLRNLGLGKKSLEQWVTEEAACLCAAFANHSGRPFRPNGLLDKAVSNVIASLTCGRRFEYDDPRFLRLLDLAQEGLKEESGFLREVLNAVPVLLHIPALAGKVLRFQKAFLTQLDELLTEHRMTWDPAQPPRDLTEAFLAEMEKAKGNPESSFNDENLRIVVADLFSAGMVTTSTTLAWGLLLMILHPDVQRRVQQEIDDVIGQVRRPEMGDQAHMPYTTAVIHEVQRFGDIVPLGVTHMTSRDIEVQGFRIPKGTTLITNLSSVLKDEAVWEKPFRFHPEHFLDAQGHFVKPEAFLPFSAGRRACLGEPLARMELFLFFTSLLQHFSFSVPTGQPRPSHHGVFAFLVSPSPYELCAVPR

Large T antigen = Large T antigen (Simian virus 40, UniProt P03070); assay type: functional, Betapolyomavirus macacae;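 further: Confirmatory-stage PubChem screen for compounds that inhibit SV40 T antigen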
Sequence of Large T antigen (P03070 whole entry): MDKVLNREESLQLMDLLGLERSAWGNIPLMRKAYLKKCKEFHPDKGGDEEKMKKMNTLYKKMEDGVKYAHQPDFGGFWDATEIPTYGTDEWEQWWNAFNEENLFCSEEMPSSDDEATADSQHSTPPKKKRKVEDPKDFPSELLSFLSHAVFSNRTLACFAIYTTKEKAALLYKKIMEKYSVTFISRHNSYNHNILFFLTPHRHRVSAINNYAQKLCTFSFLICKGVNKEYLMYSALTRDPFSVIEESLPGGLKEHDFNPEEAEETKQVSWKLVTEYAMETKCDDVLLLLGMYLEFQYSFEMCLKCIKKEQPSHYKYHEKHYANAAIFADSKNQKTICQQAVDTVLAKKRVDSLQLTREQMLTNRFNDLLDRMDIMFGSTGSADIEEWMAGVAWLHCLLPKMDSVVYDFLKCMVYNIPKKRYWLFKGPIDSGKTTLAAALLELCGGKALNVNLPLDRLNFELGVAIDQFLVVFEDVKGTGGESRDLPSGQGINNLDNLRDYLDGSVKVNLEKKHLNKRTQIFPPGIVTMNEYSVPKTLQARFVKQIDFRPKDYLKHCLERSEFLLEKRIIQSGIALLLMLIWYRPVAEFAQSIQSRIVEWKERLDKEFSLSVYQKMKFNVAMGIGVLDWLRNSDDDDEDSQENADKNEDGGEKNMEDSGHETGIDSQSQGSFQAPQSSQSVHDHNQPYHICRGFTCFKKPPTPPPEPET

Cytochrome P450 2C19 = Cytochrome P450 2C19 (Homo sapiens, UniProt P33261); test: Cytochrome panel assay with activity outcomes. Panel member name: p450-cyp2c19 Compounds with AC50 equal or less than 10 uM are considered active; assay type: functional; conditions: read-out: AC50
Sequence of Cytochrome P450 2C19 (P33261 whole entry): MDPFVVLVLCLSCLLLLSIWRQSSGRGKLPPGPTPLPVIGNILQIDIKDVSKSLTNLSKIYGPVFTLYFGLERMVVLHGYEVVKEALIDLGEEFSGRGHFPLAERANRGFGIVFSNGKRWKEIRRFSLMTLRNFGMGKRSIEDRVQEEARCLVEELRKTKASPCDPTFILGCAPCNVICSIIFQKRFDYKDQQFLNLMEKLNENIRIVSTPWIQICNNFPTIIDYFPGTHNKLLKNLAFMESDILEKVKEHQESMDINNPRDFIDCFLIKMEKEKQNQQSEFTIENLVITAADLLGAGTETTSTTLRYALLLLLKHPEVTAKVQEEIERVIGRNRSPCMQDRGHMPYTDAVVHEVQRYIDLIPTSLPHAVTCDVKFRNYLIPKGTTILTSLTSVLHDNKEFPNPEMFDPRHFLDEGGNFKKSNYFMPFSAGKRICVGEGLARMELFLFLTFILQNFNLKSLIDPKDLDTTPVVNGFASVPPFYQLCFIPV

[1] = target: T2, Zinc finger protein mex-5 (Caenorhabditis elegans, UniProt Q9XUB2); test: potency of MEX-5 RNA-binding blockers – biochemical, C. elegans, fluorescence polarization, dose response (AID 1960)
T2 sequence (Q9XUB2 whole entry): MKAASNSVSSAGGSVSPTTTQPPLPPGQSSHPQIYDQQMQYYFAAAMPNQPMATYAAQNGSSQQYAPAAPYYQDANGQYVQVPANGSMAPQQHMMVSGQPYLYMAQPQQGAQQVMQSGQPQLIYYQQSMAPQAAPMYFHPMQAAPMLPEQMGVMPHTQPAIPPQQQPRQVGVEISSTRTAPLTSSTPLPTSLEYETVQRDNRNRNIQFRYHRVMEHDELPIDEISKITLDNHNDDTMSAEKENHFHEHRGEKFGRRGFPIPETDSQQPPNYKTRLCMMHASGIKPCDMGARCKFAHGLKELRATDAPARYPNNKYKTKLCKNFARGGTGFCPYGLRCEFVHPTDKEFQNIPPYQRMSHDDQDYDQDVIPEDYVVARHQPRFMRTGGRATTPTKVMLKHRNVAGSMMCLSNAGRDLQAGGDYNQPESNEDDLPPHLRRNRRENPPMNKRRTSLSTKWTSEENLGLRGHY

SUMO-activating enzyme [2] = target: T3, SUMO-activating enzyme (Homo sapiens, UniProt Q9UBT2); test: blockers of UBC9-mediated SUMO conjugation – biochemical, AlphaScreen, SUMOylation inhibitor project, confirmation (AID 2018); assay type: functional
T3 sequence (Q9UBE0 whole entry, the tested form may be a part): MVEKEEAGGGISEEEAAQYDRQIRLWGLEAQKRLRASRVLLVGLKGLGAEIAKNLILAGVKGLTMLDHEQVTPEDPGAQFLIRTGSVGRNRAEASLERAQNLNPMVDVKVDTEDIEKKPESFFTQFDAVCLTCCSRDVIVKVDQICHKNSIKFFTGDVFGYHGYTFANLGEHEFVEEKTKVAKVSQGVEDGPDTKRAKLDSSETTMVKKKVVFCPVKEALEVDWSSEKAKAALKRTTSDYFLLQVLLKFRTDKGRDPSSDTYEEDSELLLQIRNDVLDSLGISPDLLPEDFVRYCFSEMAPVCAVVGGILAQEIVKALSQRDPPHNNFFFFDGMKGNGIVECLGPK
T3 sequence (Q9UBT2 whole entry, the tested form may be a part): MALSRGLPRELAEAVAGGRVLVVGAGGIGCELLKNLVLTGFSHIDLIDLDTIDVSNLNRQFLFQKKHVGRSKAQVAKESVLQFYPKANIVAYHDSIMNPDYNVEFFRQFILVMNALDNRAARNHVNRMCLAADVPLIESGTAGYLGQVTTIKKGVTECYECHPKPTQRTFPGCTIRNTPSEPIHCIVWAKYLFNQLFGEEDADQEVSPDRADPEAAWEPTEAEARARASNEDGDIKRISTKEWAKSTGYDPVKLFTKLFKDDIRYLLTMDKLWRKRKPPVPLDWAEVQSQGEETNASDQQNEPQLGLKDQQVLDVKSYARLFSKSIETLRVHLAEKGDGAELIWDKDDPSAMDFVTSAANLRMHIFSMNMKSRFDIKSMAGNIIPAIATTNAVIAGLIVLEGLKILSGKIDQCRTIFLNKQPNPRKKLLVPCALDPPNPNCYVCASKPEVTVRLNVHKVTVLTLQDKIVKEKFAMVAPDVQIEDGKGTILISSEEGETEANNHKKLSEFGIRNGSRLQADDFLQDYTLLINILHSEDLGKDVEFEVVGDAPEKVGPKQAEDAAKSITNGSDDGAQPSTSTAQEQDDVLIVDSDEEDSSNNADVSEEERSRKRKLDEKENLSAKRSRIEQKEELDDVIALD

[3] = target: T4, RNA-binding protein pos-1 (Caenorhabditis elegans, UniProt G5EF15); test: disruptors of C. elegans POS-1 RNA interaction – biochemical, fluorescence polarization, dose response (AID 1964);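 further: purified POS-1 fused to maltose binding protein made in E. coli; potency of compounds blocking POS-1 binding to fluorescent RNA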
T4 sequence (G5EF15 whole entry): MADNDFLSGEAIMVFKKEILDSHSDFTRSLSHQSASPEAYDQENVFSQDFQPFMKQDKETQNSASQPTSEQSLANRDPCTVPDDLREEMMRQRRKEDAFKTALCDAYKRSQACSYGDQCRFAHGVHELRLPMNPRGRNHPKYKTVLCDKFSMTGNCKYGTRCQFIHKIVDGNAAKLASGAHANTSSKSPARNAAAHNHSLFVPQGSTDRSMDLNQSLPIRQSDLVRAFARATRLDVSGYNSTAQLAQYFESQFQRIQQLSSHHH

SUMO-activating enzyme [4] = target: T3, SUMO-activating enzyme; test: blockers of SAE1/SAE2–UBC9 SUMO transfer – biochemical, HTRF, uHTS, primary screen (AID 2006); assay type: protein-complex assay
[5] = target: Melanin-concentrating hormone receptor 1 (Homo sapiens, UniProt Q99705); test: Fluorescence-based counterscreen for antagonists of the G-protein coupled receptor 7 (GPR7): cell-based high throughput dose response assay to identify antagonists of the melanin-concentrating hormone receptor 1 (MCHR1).; assay type: functional
Sequence of Melanin-concentrating hormone receptor 1 (Q99705 whole entry): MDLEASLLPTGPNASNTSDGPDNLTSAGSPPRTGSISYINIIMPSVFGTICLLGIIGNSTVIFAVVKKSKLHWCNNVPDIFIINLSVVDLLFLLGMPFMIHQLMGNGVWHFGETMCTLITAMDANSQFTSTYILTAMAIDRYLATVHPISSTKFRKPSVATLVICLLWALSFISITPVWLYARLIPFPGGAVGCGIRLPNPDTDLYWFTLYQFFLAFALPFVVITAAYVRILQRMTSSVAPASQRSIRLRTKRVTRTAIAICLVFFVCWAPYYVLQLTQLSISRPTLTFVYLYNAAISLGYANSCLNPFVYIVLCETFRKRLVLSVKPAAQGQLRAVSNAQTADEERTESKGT

[6] = target: Neuropeptides B/W receptor type 1 (Homo sapiens, UniProt P48145); test: Fluorescence-based dose response cell-based high throughput screening assay to identify antagonists of the G-protein coupled receptor 7 (GPR7). [Related pubchem assays: 1952 (Screening assay (GPR7 antagonists).), 1880 (Summary AID.)]; assay type: functional
Sequence of Neuropeptides B/W receptor type 1 (P48145 whole entry): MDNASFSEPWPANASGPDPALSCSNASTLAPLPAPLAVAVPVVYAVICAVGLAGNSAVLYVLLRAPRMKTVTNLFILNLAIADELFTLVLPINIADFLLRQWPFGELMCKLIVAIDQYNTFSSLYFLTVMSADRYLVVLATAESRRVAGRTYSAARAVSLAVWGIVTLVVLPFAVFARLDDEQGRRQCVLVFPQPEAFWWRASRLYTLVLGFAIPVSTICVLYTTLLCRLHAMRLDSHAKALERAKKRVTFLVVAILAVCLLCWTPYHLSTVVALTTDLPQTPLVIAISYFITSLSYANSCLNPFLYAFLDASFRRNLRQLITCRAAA

[7] = viability of uninfected HEp-2 cells – cell-based, HTS, cytotoxicity control for RSV inhibitor project, dose response (AID 2410); assay type: functional; conditions: human respiratory syncytial virus
[8] = target: Signal transducer and activator of transcription 3 (Homo sapiens, UniProt P40763); test: STAT3 activation with BCL3 mRNA and toxicity – cell-based, […], BCL3 qPCR, cytotoxicity, late-stage follow-up, panel member STAT3 Activation (AID 2049)
Sequence of Signal transducer and activator of transcription 3 (P40763 whole entry): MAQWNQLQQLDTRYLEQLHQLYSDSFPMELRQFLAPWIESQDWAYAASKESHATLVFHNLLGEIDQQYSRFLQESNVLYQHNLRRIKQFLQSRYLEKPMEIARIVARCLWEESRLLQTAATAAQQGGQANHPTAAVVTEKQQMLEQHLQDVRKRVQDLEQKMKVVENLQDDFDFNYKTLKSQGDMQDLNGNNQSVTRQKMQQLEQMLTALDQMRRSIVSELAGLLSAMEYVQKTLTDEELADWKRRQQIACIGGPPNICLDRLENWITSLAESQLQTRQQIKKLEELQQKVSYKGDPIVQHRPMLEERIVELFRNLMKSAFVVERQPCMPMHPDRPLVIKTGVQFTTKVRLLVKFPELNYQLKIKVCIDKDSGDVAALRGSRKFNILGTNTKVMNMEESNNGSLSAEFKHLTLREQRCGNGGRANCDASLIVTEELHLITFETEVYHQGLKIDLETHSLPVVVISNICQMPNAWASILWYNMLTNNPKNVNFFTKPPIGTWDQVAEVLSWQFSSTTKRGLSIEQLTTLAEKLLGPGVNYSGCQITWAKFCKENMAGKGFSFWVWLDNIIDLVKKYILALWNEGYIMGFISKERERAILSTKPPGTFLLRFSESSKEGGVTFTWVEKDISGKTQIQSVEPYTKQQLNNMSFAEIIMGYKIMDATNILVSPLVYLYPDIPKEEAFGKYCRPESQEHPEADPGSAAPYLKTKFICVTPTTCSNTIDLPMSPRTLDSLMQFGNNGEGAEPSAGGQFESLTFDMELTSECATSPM

## N=C1/C(=C\c2ccc(SCc3ccco3)o2)C(=O)N=C2SC=NN12
Cytochrome P450 1A2
  AC50: 1.58 µM (inconclusive)
Cytochrome P450 2D6
  AC50: 15.8 µM (inconclusive)
Large T antigen
  IC50: 59.6 µM (active)
Cytochrome P450 2C19
  AC50: 15.8 µM (inconclusive)
[1]
  EC50: > 300 µM (not active)
SUMO-activating enzyme [2]
  IC50: 2.28 µM (active)
[3]
  EC50: > 300 µM (not active)
SUMO-activating enzyme [4]
  IC50: 32.7 µM (active)

## Cc1cc(C[n+]2cc(Br)ccc2N)c2ncccc2c1
[5]
  IC50: 26.2 µM (not active)
[6]
  IC50: > 43.8 µM (not active)
[7]
  CC50: 46.4 µM (active)

## COc1cc(NC(=O)c2cc(C(C)C)on2)c(OC)cc1Cl
[8]
  EC50: 0.00104 µM (active)
